From ChEMBL document CHEMBL5291721, “A preclinical secondary pharmacology resource illuminates target-adverse drug reaction associations of marketed drugs” (Nat Commun, 2023)

How the values were obtained:
Bile salt export pump = Bile salt export pump (Homo sapiens, UniProt O95342); format: functional
[1] = biological target: T1, 5-hydroxytryptamine receptor 2C (Homo sapiens, UniProt P28335)
T1 sequence (P28335 whole entry): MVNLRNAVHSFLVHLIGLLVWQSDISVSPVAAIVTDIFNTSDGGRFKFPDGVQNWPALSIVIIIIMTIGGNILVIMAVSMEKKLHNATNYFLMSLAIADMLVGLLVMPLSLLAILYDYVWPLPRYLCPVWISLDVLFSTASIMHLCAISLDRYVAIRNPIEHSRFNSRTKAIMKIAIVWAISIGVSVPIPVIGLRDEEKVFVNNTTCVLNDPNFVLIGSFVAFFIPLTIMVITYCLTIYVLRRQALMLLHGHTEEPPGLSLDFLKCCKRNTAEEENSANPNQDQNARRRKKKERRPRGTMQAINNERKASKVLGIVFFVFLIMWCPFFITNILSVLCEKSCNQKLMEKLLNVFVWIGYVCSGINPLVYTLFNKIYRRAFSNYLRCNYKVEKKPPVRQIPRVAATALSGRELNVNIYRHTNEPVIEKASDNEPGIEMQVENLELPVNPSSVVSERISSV

[2] = biological target: Voltage-gated inwardly rectifying potassium channel KCNH2 (Homo sapiens, UniProt Q12809); format: functional; conditions: read-out: AC50
Adenosine receptor A3 = biological target: T2, Adenosine receptor A3 (Homo sapiens, UniProt P0DMS8)
T2 sequence (P0DMS8 whole entry): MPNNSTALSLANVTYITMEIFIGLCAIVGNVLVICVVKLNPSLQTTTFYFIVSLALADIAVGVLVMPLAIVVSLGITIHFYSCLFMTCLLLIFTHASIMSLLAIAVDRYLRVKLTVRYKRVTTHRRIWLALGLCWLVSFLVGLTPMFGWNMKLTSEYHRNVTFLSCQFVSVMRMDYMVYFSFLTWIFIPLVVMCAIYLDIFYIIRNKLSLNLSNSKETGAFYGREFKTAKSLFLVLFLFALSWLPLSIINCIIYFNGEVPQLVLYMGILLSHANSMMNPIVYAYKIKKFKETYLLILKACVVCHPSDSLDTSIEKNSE

[3] = biological target: T3, Amine oxidase [flavin-containing] A (Homo sapiens, UniProt P21397); format: functional
T3 sequence (P21397 whole entry): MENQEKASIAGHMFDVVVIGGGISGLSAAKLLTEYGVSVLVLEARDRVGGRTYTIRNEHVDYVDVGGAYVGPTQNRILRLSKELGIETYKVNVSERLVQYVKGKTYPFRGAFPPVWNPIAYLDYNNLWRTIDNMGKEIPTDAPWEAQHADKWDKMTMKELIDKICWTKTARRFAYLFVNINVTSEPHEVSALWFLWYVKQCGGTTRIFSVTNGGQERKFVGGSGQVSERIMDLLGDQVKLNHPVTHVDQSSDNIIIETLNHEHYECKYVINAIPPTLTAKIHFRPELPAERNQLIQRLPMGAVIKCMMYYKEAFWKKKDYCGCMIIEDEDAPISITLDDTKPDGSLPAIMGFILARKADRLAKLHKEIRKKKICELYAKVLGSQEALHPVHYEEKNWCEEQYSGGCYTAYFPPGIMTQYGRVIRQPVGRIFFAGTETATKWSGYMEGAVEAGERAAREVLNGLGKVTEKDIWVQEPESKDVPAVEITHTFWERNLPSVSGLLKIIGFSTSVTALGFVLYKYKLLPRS

D(3) dopamine receptor = D(3) dopamine receptor (Homo sapiens, UniProt P35462)
[4] = biological target: Neuronal acetylcholine receptor subunit alpha-4 (Homo sapiens, UniProt P43681)
Vasopressin V1a receptor = Vasopressin V1a receptor (Homo sapiens, UniProt P37288)
[5] = biological target: T4, Prostaglandin G/H synthase 1 (Rattus norvegicus, UniProt Q63921); format: functional
T4 sequence (Q63921 whole entry): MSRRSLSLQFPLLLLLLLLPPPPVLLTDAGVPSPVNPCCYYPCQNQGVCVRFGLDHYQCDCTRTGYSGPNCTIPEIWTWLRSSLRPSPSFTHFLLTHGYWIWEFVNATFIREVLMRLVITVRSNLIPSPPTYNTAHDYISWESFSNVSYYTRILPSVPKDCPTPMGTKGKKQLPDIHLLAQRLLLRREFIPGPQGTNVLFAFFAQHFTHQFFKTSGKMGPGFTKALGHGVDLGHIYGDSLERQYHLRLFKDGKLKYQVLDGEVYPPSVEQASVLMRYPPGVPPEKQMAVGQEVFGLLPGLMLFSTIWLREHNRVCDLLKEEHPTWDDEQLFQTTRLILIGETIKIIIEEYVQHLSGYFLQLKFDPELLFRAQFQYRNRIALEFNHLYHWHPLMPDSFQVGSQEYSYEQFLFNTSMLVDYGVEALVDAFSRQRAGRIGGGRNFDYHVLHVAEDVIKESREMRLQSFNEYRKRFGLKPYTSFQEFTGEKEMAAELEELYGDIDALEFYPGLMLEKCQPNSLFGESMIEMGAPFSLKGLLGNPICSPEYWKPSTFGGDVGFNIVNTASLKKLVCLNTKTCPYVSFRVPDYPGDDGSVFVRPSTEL

D(1A) dopamine receptor = D(1A) dopamine receptor (Homo sapiens, UniProt P21728); format: functional, cell-based
[6] = biological target: Beta-1 adrenergic receptor (Homo sapiens, UniProt P08588); format: functional
[7] = biological target: 5-hydroxytryptamine receptor 2B (Homo sapiens, UniProt P41595); format: functional, cell-based
[8] = biological target: T5, 5-hydroxytryptamine receptor 3A (Homo sapiens, UniProt P46098); format: functional
T5 sequence (P46098 whole entry): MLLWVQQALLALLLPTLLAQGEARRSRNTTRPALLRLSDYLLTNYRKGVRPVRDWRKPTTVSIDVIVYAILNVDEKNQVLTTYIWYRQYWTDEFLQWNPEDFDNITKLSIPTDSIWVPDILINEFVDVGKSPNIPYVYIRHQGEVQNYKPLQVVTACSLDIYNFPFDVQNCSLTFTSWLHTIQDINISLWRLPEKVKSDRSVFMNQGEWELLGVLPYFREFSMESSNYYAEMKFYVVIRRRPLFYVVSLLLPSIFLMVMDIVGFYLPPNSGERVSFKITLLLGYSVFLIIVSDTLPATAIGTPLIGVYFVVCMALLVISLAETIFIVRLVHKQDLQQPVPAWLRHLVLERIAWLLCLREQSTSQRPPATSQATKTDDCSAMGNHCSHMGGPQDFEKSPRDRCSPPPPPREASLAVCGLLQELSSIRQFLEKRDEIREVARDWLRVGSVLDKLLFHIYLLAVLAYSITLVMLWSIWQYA

[9] = biological target: Sodium-dependent noradrenaline transporter (Homo sapiens, UniProt P23975)
Note: assay procedure not described here.

5-hydroxytryptamine receptor 2B, sequence (P41595 whole entry): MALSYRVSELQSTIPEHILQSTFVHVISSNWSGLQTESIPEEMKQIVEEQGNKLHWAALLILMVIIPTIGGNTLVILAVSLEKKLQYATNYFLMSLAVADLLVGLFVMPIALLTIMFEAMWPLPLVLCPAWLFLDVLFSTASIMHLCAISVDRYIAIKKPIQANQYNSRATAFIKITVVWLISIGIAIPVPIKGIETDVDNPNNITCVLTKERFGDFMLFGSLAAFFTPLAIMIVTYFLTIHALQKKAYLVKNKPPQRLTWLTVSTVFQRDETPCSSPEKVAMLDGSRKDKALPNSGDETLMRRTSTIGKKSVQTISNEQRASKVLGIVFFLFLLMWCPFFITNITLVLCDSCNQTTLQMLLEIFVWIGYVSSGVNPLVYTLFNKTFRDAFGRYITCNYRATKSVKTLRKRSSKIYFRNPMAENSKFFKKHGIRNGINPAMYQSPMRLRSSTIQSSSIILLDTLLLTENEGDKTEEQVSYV
Bile salt export pump, sequence (O95342 whole entry): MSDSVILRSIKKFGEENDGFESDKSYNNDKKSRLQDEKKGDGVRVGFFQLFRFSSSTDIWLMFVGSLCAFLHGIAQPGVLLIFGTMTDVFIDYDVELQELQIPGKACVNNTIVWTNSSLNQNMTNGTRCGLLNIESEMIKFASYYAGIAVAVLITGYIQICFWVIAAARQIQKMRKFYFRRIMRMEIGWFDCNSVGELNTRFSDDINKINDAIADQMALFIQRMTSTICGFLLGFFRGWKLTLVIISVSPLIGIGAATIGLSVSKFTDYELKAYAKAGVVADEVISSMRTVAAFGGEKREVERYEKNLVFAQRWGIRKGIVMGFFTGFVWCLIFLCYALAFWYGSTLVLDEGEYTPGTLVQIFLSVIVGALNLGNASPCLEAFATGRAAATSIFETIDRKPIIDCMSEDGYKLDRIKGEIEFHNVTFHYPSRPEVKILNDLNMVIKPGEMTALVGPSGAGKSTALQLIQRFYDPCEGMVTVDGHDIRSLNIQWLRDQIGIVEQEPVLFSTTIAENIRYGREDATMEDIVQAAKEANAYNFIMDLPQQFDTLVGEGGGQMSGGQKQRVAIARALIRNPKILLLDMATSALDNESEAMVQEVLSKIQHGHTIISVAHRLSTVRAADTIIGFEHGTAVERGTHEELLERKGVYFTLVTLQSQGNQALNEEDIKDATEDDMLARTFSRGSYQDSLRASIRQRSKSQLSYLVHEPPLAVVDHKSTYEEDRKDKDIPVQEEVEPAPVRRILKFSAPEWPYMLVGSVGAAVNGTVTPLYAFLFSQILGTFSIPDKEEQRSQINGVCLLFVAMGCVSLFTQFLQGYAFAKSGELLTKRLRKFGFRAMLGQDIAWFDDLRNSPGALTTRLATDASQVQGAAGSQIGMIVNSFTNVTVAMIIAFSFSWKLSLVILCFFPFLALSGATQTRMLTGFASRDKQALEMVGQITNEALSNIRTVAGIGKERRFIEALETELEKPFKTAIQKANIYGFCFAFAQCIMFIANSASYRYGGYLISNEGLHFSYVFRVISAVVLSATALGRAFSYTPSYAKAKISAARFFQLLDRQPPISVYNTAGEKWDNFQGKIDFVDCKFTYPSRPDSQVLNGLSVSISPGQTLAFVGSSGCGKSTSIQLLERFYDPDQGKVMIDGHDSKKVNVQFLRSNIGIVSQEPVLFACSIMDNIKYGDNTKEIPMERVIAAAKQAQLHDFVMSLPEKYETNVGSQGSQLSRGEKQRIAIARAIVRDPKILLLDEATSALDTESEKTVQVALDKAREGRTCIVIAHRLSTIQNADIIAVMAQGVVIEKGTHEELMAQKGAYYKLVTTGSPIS
Neuronal acetylcholine receptor subunit alpha-4, sequence (P43681 whole entry): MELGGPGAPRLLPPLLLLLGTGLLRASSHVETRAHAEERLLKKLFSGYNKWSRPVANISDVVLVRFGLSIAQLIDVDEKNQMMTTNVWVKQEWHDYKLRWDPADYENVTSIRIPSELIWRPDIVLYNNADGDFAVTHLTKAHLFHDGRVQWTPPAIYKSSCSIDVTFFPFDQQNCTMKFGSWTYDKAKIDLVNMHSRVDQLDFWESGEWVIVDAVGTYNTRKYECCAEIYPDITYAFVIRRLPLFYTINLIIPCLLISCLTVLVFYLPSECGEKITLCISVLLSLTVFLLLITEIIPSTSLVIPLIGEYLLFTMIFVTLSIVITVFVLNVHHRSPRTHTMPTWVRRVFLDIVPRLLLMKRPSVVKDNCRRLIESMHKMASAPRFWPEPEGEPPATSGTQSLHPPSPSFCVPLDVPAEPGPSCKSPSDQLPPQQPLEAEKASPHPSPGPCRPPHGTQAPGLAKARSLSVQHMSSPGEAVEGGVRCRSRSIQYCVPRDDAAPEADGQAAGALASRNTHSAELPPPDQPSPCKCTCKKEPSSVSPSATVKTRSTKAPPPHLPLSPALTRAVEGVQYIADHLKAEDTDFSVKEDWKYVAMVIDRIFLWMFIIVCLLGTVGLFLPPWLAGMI
Vasopressin V1a receptor, sequence (P37288 whole entry): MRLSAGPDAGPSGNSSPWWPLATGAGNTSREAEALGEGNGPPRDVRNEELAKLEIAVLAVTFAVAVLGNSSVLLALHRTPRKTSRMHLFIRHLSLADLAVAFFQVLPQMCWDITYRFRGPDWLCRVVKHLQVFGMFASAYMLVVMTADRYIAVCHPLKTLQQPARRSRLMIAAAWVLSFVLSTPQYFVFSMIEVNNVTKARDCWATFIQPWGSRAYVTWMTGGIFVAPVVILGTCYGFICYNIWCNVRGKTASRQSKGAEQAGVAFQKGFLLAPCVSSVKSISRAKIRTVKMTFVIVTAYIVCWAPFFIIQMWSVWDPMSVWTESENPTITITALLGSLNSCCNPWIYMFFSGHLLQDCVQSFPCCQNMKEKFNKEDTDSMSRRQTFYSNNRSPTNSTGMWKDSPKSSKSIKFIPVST
Sodium-dependent noradrenaline transporter, sequence (P23975 whole entry): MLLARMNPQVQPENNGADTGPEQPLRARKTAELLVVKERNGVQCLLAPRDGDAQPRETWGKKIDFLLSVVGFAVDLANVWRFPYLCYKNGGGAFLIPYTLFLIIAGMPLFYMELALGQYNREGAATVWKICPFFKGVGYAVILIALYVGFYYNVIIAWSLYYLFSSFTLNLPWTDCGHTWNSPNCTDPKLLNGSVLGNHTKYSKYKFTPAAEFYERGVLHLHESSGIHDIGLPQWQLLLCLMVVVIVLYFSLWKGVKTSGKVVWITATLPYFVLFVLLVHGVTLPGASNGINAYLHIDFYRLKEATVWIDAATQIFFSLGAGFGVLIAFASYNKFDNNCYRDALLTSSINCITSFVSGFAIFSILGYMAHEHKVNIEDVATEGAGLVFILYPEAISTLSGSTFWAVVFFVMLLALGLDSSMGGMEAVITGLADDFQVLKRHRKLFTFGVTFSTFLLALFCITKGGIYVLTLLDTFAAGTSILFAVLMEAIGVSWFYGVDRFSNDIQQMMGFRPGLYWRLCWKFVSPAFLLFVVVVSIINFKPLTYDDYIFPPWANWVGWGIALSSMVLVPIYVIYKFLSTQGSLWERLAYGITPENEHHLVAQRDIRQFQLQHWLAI
Voltage-gated inwardly rectifying potassium channel KCNH2, sequence (Q12809 whole entry): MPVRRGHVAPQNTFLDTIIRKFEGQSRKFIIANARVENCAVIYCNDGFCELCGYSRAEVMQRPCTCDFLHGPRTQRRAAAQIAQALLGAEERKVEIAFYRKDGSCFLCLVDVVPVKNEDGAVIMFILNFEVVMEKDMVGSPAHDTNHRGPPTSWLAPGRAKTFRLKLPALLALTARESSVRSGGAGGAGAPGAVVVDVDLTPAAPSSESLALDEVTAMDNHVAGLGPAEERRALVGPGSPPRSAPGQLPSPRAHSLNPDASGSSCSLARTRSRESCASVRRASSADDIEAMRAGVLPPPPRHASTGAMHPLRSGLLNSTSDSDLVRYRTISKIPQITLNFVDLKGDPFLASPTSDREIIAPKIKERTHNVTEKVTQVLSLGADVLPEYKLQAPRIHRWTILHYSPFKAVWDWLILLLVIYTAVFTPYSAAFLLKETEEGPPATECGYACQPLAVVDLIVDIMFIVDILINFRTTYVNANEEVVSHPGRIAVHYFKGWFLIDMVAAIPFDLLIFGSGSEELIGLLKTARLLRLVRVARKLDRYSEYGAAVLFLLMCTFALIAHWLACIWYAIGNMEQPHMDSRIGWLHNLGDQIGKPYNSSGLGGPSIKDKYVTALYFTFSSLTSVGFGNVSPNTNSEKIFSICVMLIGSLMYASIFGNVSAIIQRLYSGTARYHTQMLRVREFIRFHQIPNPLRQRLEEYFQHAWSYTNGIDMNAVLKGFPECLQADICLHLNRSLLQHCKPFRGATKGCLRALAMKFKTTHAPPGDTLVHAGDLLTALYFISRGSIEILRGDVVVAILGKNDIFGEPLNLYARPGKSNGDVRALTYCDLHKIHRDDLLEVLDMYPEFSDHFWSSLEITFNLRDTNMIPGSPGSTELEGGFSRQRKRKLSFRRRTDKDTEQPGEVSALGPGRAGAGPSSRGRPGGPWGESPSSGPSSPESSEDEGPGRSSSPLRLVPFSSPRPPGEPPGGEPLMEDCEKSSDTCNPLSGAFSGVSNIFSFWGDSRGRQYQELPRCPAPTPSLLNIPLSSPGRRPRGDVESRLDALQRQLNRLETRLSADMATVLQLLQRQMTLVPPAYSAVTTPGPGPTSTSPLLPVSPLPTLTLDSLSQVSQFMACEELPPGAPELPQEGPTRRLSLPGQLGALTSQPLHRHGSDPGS
D(1A) dopamine receptor, sequence (P21728 whole entry): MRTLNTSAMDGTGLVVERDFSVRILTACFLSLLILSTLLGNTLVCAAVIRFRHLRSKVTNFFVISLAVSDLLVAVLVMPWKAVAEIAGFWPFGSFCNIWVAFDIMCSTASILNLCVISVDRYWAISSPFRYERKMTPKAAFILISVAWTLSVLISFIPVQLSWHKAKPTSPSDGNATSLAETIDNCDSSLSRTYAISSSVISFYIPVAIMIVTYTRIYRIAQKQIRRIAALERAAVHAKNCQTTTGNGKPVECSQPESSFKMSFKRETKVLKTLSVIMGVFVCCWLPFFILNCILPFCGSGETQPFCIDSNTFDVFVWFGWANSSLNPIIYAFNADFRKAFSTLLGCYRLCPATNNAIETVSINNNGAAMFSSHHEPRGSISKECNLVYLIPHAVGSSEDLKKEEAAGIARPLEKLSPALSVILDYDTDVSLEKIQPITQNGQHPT

Row | AC50 (Bile salt export pump) | AC50 [1] | AC50 (Adenosine receptor A3) | AC50 [3] | AC50 (D(3) dopamine receptor) | AC50 [4] | AC50 (Vasopressin V1a receptor) | AC50 [5] | AC50 (D(1A) dopamine receptor) | AC50 [6] | AC50 [7] | AC50 [8] | AC50 [9] | Compound | AC50 [2]
1 | > 300 µM | > 30 µM | > 30 µM | > 30 µM | > 30 µM | > 30 µM | > 30 µM | > 30 µM | > 30 µM | > 30 µM | > 30 µM | > 30 µM | – | CC(=O)NCCCS(=O)(=O)O [ACAMPROSATE] | > 30 µM
2 | > 300 µM | > 30 µM | > 30 µM | > 30 µM | 15 µM | > 30 µM | > 30 µM | > 30 µM | > 30 µM | > 30 µM | > 30 µM | > 30 µM | 13 µM | COc1cc2nc(N(C)CCCNC(=O)C3CCCO3)nc(N)c2cc1OC (stereo not drawn) [ALFUZOSIN] | –
3 | 34 µM | > 30 µM | 9.14 µM | > 10 µM | > 30 µM | > 10 µM | > 30 µM | – | > 10 µM | > 10 µM | > 10 µM | > 30 µM | 15.7 µM | Cc1ccc(-c2cc(C(F)(F)F)nn2-c2ccc(S(N)(=O)=O)cc2)cc1 [CELECOXIB] | –
4 | > 300 µM | > 30 µM | > 30 µM | > 10 µM | > 10 µM | > 10 µM | > 10 µM | > 30 µM | – | > 10 µM | – | > 30 µM | > 10 µM | CC1=C(C(=O)O)N2C(=O)[C@@H](NC(=O)[C@H](N)c3ccccc3)[C@H]2SC1 [CEPHALEXIN ANHYDROUS] | –
5 | > 300 µM | > 10 µM | > 30 µM | > 10 µM | > 10 µM | > 10 µM | > 10 µM | > 30 µM | > 10 µM | > 10 µM | > 10 µM | > 10 µM | 7.7 µM | CN(C)CCC(c1ccc(Cl)cc1)c1ccccn1 (stereo not drawn) [CHLORPHENIRAMINE] | –
6 | > 300 µM | > 30 µM | > 10 µM | > 10 µM | > 30 µM | > 10 µM | – | > 10 µM | > 10 µM | > 10 µM | > 10 µM | > 30 µM | > 10 µM | CN(C)/N=N/c1[nH]cnc1C(N)=O [DACARBAZINE] | > 30 µM

Row | Compound | AC50 (Bile salt export pump) | AC50 [1] | AC50 (Adenosine receptor A3) | AC50 [3] | AC50 (D(3) dopamine receptor) | AC50 [4] | AC50 (Vasopressin V1a receptor) | AC50 [5] | AC50 (D(1A) dopamine receptor) | AC50 [6] | AC50 [7] | AC50 [8] | AC50 [9] | AC50 [2]
7 | CC(=O)Nc1ccc(O)cc1 [ACETAMINOPHEN] | > 300 µM | > 30 µM | > 30 µM | > 30 µM | > 30 µM | > 30 µM | > 30 µM | > 30 µM | – | > 30 µM | > 30 µM | > 30 µM | > 30 µM | > 30 µM
